Key:
[1] = tested on: [Chlorella] fusca; assay: Antialgal activity against Chlorella fusca at 50 ug by agar diffusion test; assay type: functional; settings: Scenedesmus fuscus; read-out: IZ
[2] = tested on: [Chlorella] fusca; assay: Reduction of photosynthetic activity in green alga Chlorella fusca assessed as production of oxygen per hour at 0.2 mg/mL; assay type: functional, Scenedesmus fuscus; parameters: scale not given: the % may be the effect or the level left

| SMILES | zone of inhibition at 50 µg/disc [1] | Activity [2] |
| --- | --- | --- |
| C[C@H]1C/C=C/[C@H]2[C@@H]3O[C@]3(C)[C@@H](C)[C@H]3[C@H](Cc4ccccc4)NC(=O)[C@]32OC(=O)/C=C/[C@@H](O)CCC1 [CYTOCHALASIN F] | 1 mm | 94.1% |
| C[C@]12CCC(=O)O[C@H]1C1=C[C@H]3OC(=O)[C@@]4(C)CCC[C@@](C)([C@@H]34)[C@]1(O)[C@H]2O [GENICULOL] | 2 mm |  |
